Results reported in publication PMC8286840, “Identifying SARS-CoV-2 antiviral compounds by screening for small molecule inhibitors of Nsp3 papain-like protease” (Biochemical Journal, 2021).
Where a name gives a salt, the structure may show the parent alone. Read-outs that look alike come from different tables or passages of the source.

Columns and labels:
[1] = target: T1, SARS-CoV-2 PLpro (nsp3 1564–1878) (Severe acute respiratory syndrome coronavirus 2, UniProt P0DTD1); test: biochemical; set-up: FRET-quenched peptide (Pro3) cleavage by PLpro, 10 min pre-incubation, slope over 20 min, normalised to no-compound control; details: low concentration screen, read-out: % of control remaining
[2] = target: T1, SARS-CoV-2 PLpro (nsp3 1564–1878); test: biochemical; set-up: FRET-quenched peptide (Pro3) cleavage by PLpro, 10 min pre-incubation, slope over 20 min, normalised to no-compound control; details: high concentration screen, read-out: % of control remaining

## COC1=C[C@@H](C)[C@@H]2C[C@H]3OC(=O)C[C@H]4C(C)=C(OC)C(=O)[C@H]([C@@]2(C)C1=O)[C@@]34C [Quassin]
[1]; Well no.=3775
  remaining activity at 1.25 µM: 94.2%
[2]; Well no.=3775
  remaining activity at 3.75 µM: 101%

## CCCC(N)C(=O)O (racemic) [DL-Norvaline]
[1]; Well no.=7399
  remaining activity at 1.25 µM: 108%
[2]; Well no.=7399
  remaining activity at 3.75 µM: 108%
[2]; Well no.=8563
  remaining activity at 3.75 µM: 109%

## CC(C)[C@H](CO)Nc1nc(Nc2ccc(C(=O)O)c(Cl)c2)c2ncn(C(C)C)c2n1 [Purvalanol B - (2R)-2-[[6-[(3-Chloro-4-carboxyphenyl)amino]-9-(1-methylethyl)-9H-purin-2-yl]amino]-3-methyl-1-butanol]
[1]; Well no.=2436
  remaining activity at 1.25 µM: 103%
[2]; Well no.=2436
  remaining activity at 3.75 µM: 105%

## CCc1c(C)[nH]c2c1C(=O)C(CN1CCOCC1)CC2 (stereo not shown) [Molindone (hydrochloride)]
[1]; Well no.=6905
  remaining activity at 1.25 µM: 98.8%
[1]; Well no.=7928
  remaining activity at 1.25 µM: 95.5%
[2]; Well no.=6905
  remaining activity at 3.75 µM: 93.3%
[2]; Well no.=7928
  remaining activity at 3.75 µM: 98.2%

## CCCN1CCCC[C@H]1C(=O)Nc1c(C)cccc1C [Ropivacaine hydrochloride]
[1]; Well no.=5891
  remaining activity at 1.25 µM: 98.9%
[2]; Well no.=5891
  remaining activity at 3.75 µM: 97.5%

## CC(=O)NS(=O)(=O)c1ccc(N)cc1 [Sulfacetamide Sodium]
[1]; Well no.=4740
  remaining activity at 1.25 µM: 106%
[2]; Well no.=4740
  remaining activity at 3.75 µM: 106%

## CN[C@@H](C)C(=O)N[C@H](C(=O)N1CCC[C@H]1C(=O)Nc1sc(-c2ncco2)nc1-c1ccccc1)C1CCCCC1 [CUDC-427]
[1]; Well no.=7062
  remaining activity at 1.25 µM: 99.8%
[2]; Well no.=7062
  remaining activity at 3.75 µM: 92.1%

## O=c1[nH]nc(Sc2ncc([N+](=O)[O-])s2)n1-c1ccc2c(c1)OCCO2 [BI-78D3]
[1]; Well no.=6058
  remaining activity at 1.25 µM: 101%
[2]; Well no.=6058
  remaining activity at 3.75 µM: 96.9%

## NC(=S)c1ccc[n+]([C@@H]2O[C@H](COP(=O)([O-])OP(=O)(O)OC[C@H]3O[C@@H](n4cnc5c(N)ncnc54)[C@H](OP(=O)(O)O)[C@@H]3O)[C@@H](O)[C@H]2O)c1 [Thio-NADP sodium]
[1]; Well no.=1481
  remaining activity at 1.25 µM: 98%
[2]; Well no.=1481
  remaining activity at 3.75 µM: 93.5%

## N=C(N)SCCc1c[nH]cn1 [Imetit dihydrobromide]
[1]; Well no.=779
  remaining activity at 1.25 µM: 94.3%
[2]; Well no.=779
  remaining activity at 3.75 µM: 94.6%

## CCOC(=O)c1cnc(C#Cc2ccc3c(c2)C(C)(C)CC[S+]3[O-])nc1 (stereo not shown) [WYC-209]
[1]; Well no.=7204
  remaining activity at 1.25 µM: 92.4%
[2]; Well no.=7204
  remaining activity at 3.75 µM: 90.8%

## O=C1NC(=O)/C(=C/c2ccc3nccnc3c2)S1 [PI 3-Kg Inhibitor]
[1]; Well no.=2515
  remaining activity at 1.25 µM: 99.9%
[2]; Well no.=2515
  remaining activity at 3.75 µM: 106%

## CNC(=C[N+](=O)[O-])NCCSCc1ccc(CN(C)C)o1 [Ranitidine (hydrochloride)]
[1]; Well no.=6609
  remaining activity at 1.25 µM: 102%
[2]; Well no.=6609
  remaining activity at 3.75 µM: 104%

## CCN1C[C@]2(C)CC[C@H](OC)[C@@]34C1[C@]1(OCO[C@@]15C[C@H](OC)[C@H]1C[C@]3(O)[C@@H]5[C@H]1OC)[C@@H](OC(C)=O)[C@H]24 [Deltaline]
[1]; Well no.=3111
  remaining activity at 1.25 µM: 101%
[2]; Well no.=3111
  remaining activity at 3.75 µM: 103%

## CCOC(=O)O[C@]1(C(=O)OCCl)CC[C@H]2[C@@H]3CCC4=CC(=O)C=C[C@]4(C)[C@H]3[C@@H](O)C[C@@]21C [Loteprednol Etabonate]
[1]; Well no.=4618
  remaining activity at 1.25 µM: 98%
[1]; Well no.=6459
  remaining activity at 1.25 µM: 99.9%
[2]; Well no.=4618
  remaining activity at 3.75 µM: 103%
[2]; Well no.=6459
  remaining activity at 3.75 µM: 97.6%

## O=C(O)Cc1c[nH]c2ccc(O)cc12 [5-Hydroxyindole-3-acetic acid]
[1]; Well no.=5974
  remaining activity at 1.25 µM: 102%
[1]; Well no.=7351
  remaining activity at 1.25 µM: 103%
[2]; Well no.=5974
  remaining activity at 3.75 µM: 101%
[2]; Well no.=7351
  remaining activity at 3.75 µM: 102%

## CC(C)c1cc(C(C)C)c(-c2csc(N(CCN(C)C)Cc3cccnc3)n2)c(C(C)C)c1 [SR 27417]
[1]; Well no.=5599
  remaining activity at 1.25 µM: 100%
[2]; Well no.=5599
  remaining activity at 3.75 µM: 100%

## C/C(Nc1ccccc1)=C1\C(=O)NC(Cc2ccccc2)C1=O (stereo not shown) [(3E)-3-(1-anilinoethylidene)-5-benzyl-2,4-pyrrolidinedione]
[1]; Well no.=5686
  remaining activity at 1.25 µM: 96.9%
[2]; Well no.=5686
  remaining activity at 3.75 µM: 97.8%

## COc1ccc2[nH]cc(CCNC(C)=O)c2c1 [Melatonin]
[1]; Well no.=1072
  remaining activity at 1.25 µM: 98.6%
[1]; Well no.=1665
  remaining activity at 1.25 µM: 106%
[1]; Well no.=3320
  remaining activity at 1.25 µM: 99.3%
[1]; Well no.=3990
  remaining activity at 1.25 µM: 101%
[1]; Well no.=6347
  remaining activity at 1.25 µM: 97.8%
[1]; Well no.=6565
  remaining activity at 1.25 µM: 103%
[2]; Well no.=1072
  remaining activity at 3.75 µM: 101%
[2]; Well no.=1665
  remaining activity at 3.75 µM: 107%
[2]; Well no.=3320
  remaining activity at 3.75 µM: 98.5%
[2]; Well no.=6347
  remaining activity at 3.75 µM: 102%
[2]; Well no.=6565
  remaining activity at 3.75 µM: 96.1%

## COC(=O)c1cc(OC)c2c(c1-c1c(CO)cc(OC)c3c1OCO3)OCO2 [Bicyclol]
[1]; Well no.=5916
  remaining activity at 1.25 µM: 107%
[2]; Well no.=5916
  remaining activity at 3.75 µM: 100%

## CC(=O)O[C@H]1C(=O)[C@@]2(C)[C@H]([C@H](OC(=O)c3ccccc3)[C@]3(O)C[C@H](OC(=O)[C@H](O)[C@@H](NC(=O)c4ccccc4)c4ccccc4)C(C)=C1C3(C)C)[C@]1(OC(C)=O)CO[C@@H]1C[C@@H]2O [Taxol]
[1]; Well no.=1180
  remaining activity at 1.25 µM: 92.6%
[1]; Well no.=1999
  remaining activity at 1.25 µM: 103%
[1]; Well no.=3180
  remaining activity at 1.25 µM: 106%

## CC[C@H](C)C(=O)O[C@H]1C[C@@H](C)C=C2C=C[C@H](C)[C@H](CC[C@@H]3C[C@@H](O)CC(=O)O3)[C@H]21 [Lovastatin]
[1]; Well no.=1830
  remaining activity at 1.25 µM: 99.3%

## COc1cc2nc(N3CCN(C(=O)c4ccco4)CC3)nc(N)c2cc1OC [Prazosin hydrochloride]
[1]; Well no.=1349
  remaining activity at 1.25 µM: 98.8%

## CC(NC(C)(C)C)C(=O)c1cccc(Cl)c1 (stereo not shown) [Amfebutamone]
[1]; Well no.=1694
  remaining activity at 1.25 µM: 98.7%

## C=CCc1ccccc1OCC(O)CNC(C)C (stereo not shown) [Alprenolol.HCl]
[1]; Well no.=1686
  remaining activity at 1.25 µM: 103%

## CN(C)CCC(c1ccc(Cl)cc1)c1ccccn1 (racemic)
[1]; Well no.=124
  remaining activity at 1.25 µM: 92.9%

## CC(=O)[C@H]1CC[C@H]2[C@@H]3CC[C@H]4C[C@H](O)CC[C@]4(C)[C@H]3CC[C@]12C [5alpha-Pregnan-3alpha-ol-20-one]
[1]; Well no.=1353
  remaining activity at 1.25 µM: 104%

## O=C1CCCN1CC#CCN1CCCC1 [Oxotremorine sesquifumarate salt]
[1]; Well no.=946
  remaining activity at 1.25 µM: 103%

## Cn1c(=O)c2nc[nH]c2n(C)c1=O [Theophylline]
[1]; Well no.=1235
  remaining activity at 1.25 µM: 97.1%
[1]; Well no.=6249
  remaining activity at 1.25 µM: 110%
[1]; Well no.=8277
  remaining activity at 1.25 µM: 98.3%

## CN(C)C(=O)Oc1cccc([N+](C)(C)C)c1 [Neostigmine bromide]
[1]; Well no.=853
  remaining activity at 1.25 µM: 105%

## CC1(C)[C@H](C(=O)O)N2C(=O)C[C@H]2S1(=O)=O [Sulbactam]
[1]; Well no.=2023
  remaining activity at 1.25 µM: 106%
[1]; Well no.=7450
  remaining activity at 1.25 µM: 101%

## CCC1(c2ccc(N)cc2)CCC(=O)NC1=O (racemic) [DL-Aminoglutethimide]
[1]; Well no.=2117
  remaining activity at 1.25 µM: 99.9%
